From patent US20020137929A1, “1 - (3-heterocyclylphenyl) isothiourea, -isourea, -guanidine and -amidine herbicidal agents” (Intellectual Property Department, BASF Aktiengesellschaft, priority 1998, published 2002)

Assays:
[1] = system: TRZAWR (Wheat, Winter, cv Riband); assay: Preemergence herbicidal evaluation; format: in vivo, Triticum aestivum; conditions: rated 4-5 weeks after treatment
Procedure, shortened: (§1)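 Steps: mix seeds into potting soil; plant atop ~1 inch soil; spray compound in aqueous acetone (~0.0156-0.500 kg/ha equivalent); maintain in greenhouse with watering; rate visually 0-9 versus control at 4-5 weeks.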

[2] = system: GLXMAW (Soybean, Williams); assay: Preemergence herbicidal evaluation; format: in vivo, Glycine max, (L.) Merr. cv Williams; conditions: rated 4-5 weeks after treatment
Procedure, shortened: as §1

CASOB (Sicklepod) = assay: Postemergence herbicidal evaluation; format: in vivo, Cassia obtusifolia; conditions: for CASOB herbicidal rating: postemergence
Procedure, shortened: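 First, seedlings were raised for around two weeks. Next, test material in 50/50 acetone/water containing 0.5% TWEEN 20 was sprayed through a nozzle at 40 psi, equivalent to about 0.0156–0.500 kg/ha. Finally, after 4–5 weeks in the greenhouse, plants were rated 0–9.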

MOOVA (Monochoria) = assay: Postemergence weed control under flooded paddy conditions; format: in vivo, Monochoria vaginalis; conditions: postemergence weeds
Procedure, shortened: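 Herbicidal effect is judged by eye on a 0–9 scale versus control, 3–4 weeks after dosing. Dosing is into flood water kept 1.5–3 cm over the soil, at about 0.0313–0.500 kg/ha in aqueous/acetone 50/50 v/v, on 3–5 cm weeds and 1.5–2.5-leaf rice seedlings.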

[3] = system: SAGPY (Arrowhead (Pygmaea)); assay: Preemergence weed control under flooded paddy conditions; format: in vivo, Sagittaria pygmaea; conditions: rated 3-4 weeks after treatment
Procedure, shortened: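 Greenhouse paddy assay. Acetone/water (50/50 v/v) solutions dosed into flood water, equivalent to about 0.0313 to 0.500 kg/ha active ingredient, over seeds planted 0.5 cm deep in silt loam. Score: 0-9 visual, based on stand, vigor, malformation, size and chlorosis, 3 to 4 weeks after treatment.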

ORYSAT (Rice, Tebonnet) = assay: Preemergence herbicidal evaluation; format: in vivo, Oryza sativa, (L.) Tebonnet; conditions: rated 4-5 weeks after treatment
Procedure, shortened: as §1

CN(C)N1C(=O)CSC1=Nc1cc(-n2c(=O)cc(C(F)(F)F)n(C)c2=O)c(F)cc1Cl [Compound 23, 3-{4-Chloro-5-{[3-(dimethylamino)-4-oxo-2-thiazolidinylidine]amino}-2-fluorophenyl}-1-methyl-6-(trifluoromethyl)-2,4(1H,3H)-pyrimidinedione]
0.0: TRZAWR preemergence herbicidal rating ([1]; rate 0.0156 kg/ha) | TRZAWR preemergence herbicidal rating ([1]; rate 0.0313 kg/ha) | GLXMAW preemergence herbicidal rating ([2]; rate 0.0156 kg/ha) | GLXMAW preemergence herbicidal rating ([2]; rate 0.0313 kg/ha) | CASOB herbicidal rating (CASOB (Sicklepod); rate 0.0158 kg/ha) | Herbicidal rating SAGPY ([3]; 0.1160 kg/ha) | Herbicidal rating SAGPY ([3]; 0.2310 kg/ha) | ORYSAT preemergence herbicidal rating (ORYSAT (Rice, Tebonnet); rate 0.0156 kg/ha) | ORYSAT preemergence herbicidal rating (ORYSAT (Rice, Tebonnet); rate 0.0313 kg/ha)
1.0: TRZAWR preemergence herbicidal rating ([1]; rate 0.0625 kg/ha) | CASOB herbicidal rating (CASOB (Sicklepod); rate 0.0315 kg/ha) | ORYSAT preemergence herbicidal rating (ORYSAT (Rice, Tebonnet); rate 0.0625 kg/ha) | ORYSAT preemergence herbicidal rating (ORYSAT (Rice, Tebonnet); rate 0.1250 kg/ha)
9.0: Herbicidal rating MOOVA (MOOVA (Monochoria); rate 0.1160 kg/ha, 3-4 weeks after treatment) | Herbicidal rating MOOVA (MOOVA (Monochoria); rate 0.2310 kg/ha, 3-4 weeks after treatment) | Herbicidal rating MOOVA (MOOVA (Monochoria); rate 0.4630 kg/ha, 3-4 weeks after treatment)
6.0: GLXMAW preemergence herbicidal rating ([2]; rate 0.1250 kg/ha)
3.0: CASOB herbicidal rating (CASOB (Sicklepod); rate 0.0630 kg/ha) | Herbicidal rating SAGPY ([3]; 0.4630 kg/ha)
5.0: TRZAWR preemergence herbicidal rating ([1]; rate 0.1250 kg/ha)
7.0: TRZAWR preemergence herbicidal rating ([1]; rate 0.2500 kg/ha) | GLXMAW preemergence herbicidal rating ([2]; rate 0.2500 kg/ha) | ORYSAT preemergence herbicidal rating (ORYSAT (Rice, Tebonnet); rate 0.2500 kg/ha)
2.0: GLXMAW preemergence herbicidal rating ([2]; rate 0.0625 kg/ha)

C=CCN1C(=O)C(CC(=O)OC)SC1=Nc1cc(-n2c(=O)cc(C(F)(F)F)n(C)c2=O)c(F)cc1Cl (stereo not shown) [Compound 64, Methyl 3-allyl-2-{{2-chloro-5-[3,6-dihydro-3-methyl-2,6-dioxo-4-(trifluoromethyl)-1(2H)-pyrimidinyl]-4-fluorophenyl}imino}-4-oxo-5-thiazolidineacetate]
8.0: SAGPY herbicidal effect rating ([3]; 0.2500 kg/ha)
2.0: Preemergence herbicidal rating GLXMAW ([2]; rate 0.0625 kg/ha) | Postemergence herbicidal rating CASOB (CASOB (Sicklepod); Rate 0.0158 kg/ha) | Postemergence herbicidal rating CASOB (CASOB (Sicklepod); Rate 0.0315 kg/ha)
3.0: Preemergence herbicidal rating TRZAWR ([1]; rate 0.2500 kg/ha) | Preemergence herbicidal rating GLXMAW ([2]; rate 0.1250 kg/ha) | Postemergence herbicidal rating CASOB (CASOB (Sicklepod); Rate 0.0630 kg/ha) | SAGPY herbicidal effect rating ([3]; 0.0625 kg/ha)
0.0: Preemergence herbicidal rating TRZAWR ([1]; rate 0.0156 kg/ha) | Preemergence herbicidal rating TRZAWR ([1]; rate 0.0313 kg/ha) | Preemergence herbicidal rating GLXMAW ([2]; rate 0.0156 kg/ha) | Preemergence herbicidal rating GLXMAW ([2]; rate 0.0313 kg/ha) | SAGPY herbicidal effect rating ([3]; 0.0313 kg/ha) | Preemergence herbicidal rating ORYSAT (ORYSAT (Rice, Tebonnet); rate 0.0156 kg/ha) | Preemergence herbicidal rating ORYSAT (ORYSAT (Rice, Tebonnet); rate 0.0313 kg/ha)
1.0: Preemergence herbicidal rating TRZAWR ([1]; rate 0.0625 kg/ha) | Preemergence herbicidal rating TRZAWR ([1]; rate 0.1250 kg/ha) | Preemergence herbicidal rating ORYSAT (ORYSAT (Rice, Tebonnet); rate 0.0625 kg/ha) | Preemergence herbicidal rating ORYSAT (ORYSAT (Rice, Tebonnet); rate 0.1250 kg/ha)
9.0: Herbicidal rating MOOVA (MOOVA (Monochoria); Rate 0.0625 kg/ha, rated 3 to 4 weeks after treatment) | Herbicidal rating MOOVA (MOOVA (Monochoria); Rate 0.1250 kg/ha, rated 3 to 4 weeks after treatment) | Herbicidal rating MOOVA (MOOVA (Monochoria); Rate 0.2500 kg/ha, rated 3 to 4 weeks after treatment)
7.0: Herbicidal rating MOOVA (MOOVA (Monochoria); Rate 0.0313 kg/ha, rated 3 to 4 weeks after treatment)
5.0: Preemergence herbicidal rating GLXMAW ([2]; rate 0.2500 kg/ha) | SAGPY herbicidal effect rating ([3]; 0.1250 kg/ha) | Preemergence herbicidal rating ORYSAT (ORYSAT (Rice, Tebonnet); rate 0.2500 kg/ha)

Cn1c(C(F)(F)F)cc(=O)n(-c2cc(N=C3SCC(=O)N3CC(=O)OC(C)(C)C)c(Cl)cc2F)c1=O [Compound 43, tert-Butyl 2-{{2-chloro-5-[3,6-dihydro-3-methyl-2,6-dioxo-4-(trifluoromethyl)-1(2H)-pyrimidinyl]-4-fluorophenyl}imino}-4-oxo-3-thiazolidineacetate]
4.0: Preemergence herbicidal rating TRZAWR ([1]; rate 0.2500 kg/ha)
9.0: Postemergence herbicidal rating CASOB (CASOB (Sicklepod); Rate 0.0158 kg/ha) | Postemergence herbicidal rating CASOB (CASOB (Sicklepod); Rate 0.0315 kg/ha) | Postemergence herbicidal rating CASOB (CASOB (Sicklepod); Rate 0.0630 kg/ha) | Herbicidal rating MOOVA (MOOVA (Monochoria); rate 0.0313 kg/ha, 3-4 weeks after treatment) | Herbicidal rating MOOVA (MOOVA (Monochoria); rate 0.0825 kg/ha, 3-4 weeks after treatment) | Herbicidal rating MOOVA (MOOVA (Monochoria); rate 0.1250 kg/ha, 3-4 weeks after treatment) | Herbicidal rating MOOVA (MOOVA (Monochoria); rate 0.2500 kg/ha, 3-4 weeks after treatment) | Herbicidal rating SAGPY ([3]; 0.2500 kg/ha)
2.0: Preemergence herbicidal rating GLXMAW ([2]; rate 0.2500 kg/ha)
0.0: Preemergence herbicidal rating TRZAWR ([1]; rate 0.0156 kg/ha) | Preemergence herbicidal rating TRZAWR ([1]; rate 0.0313 kg/ha) | Preemergence herbicidal rating TRZAWR ([1]; rate 0.0625 kg/ha) | Preemergence herbicidal rating GLXMAW ([2]; rate 0.0156 kg/ha) | Preemergence herbicidal rating GLXMAW ([2]; rate 0.0313 kg/ha) | Preemergence herbicidal rating GLXMAW ([2]; rate 0.0625 kg/ha) | Preemergence herbicidal rating GLXMAW ([2]; rate 0.1250 kg/ha) | Preemergence herbicidal rating ORYSAT (ORYSAT (Rice, Tebonnet); rate 0.0156 kg/ha) | Preemergence herbicidal rating ORYSAT (ORYSAT (Rice, Tebonnet); rate 0.0313 kg/ha) | Preemergence herbicidal rating ORYSAT (ORYSAT (Rice, Tebonnet); rate 0.0625 kg/ha) | Preemergence herbicidal rating ORYSAT (ORYSAT (Rice, Tebonnet); rate 0.1250 kg/ha) | Preemergence herbicidal rating ORYSAT (ORYSAT (Rice, Tebonnet); rate 0.2500 kg/ha)
7.0: Herbicidal rating SAGPY ([3]; 0.0313 kg/ha) | Herbicidal rating SAGPY ([3]; 0.0625 kg/ha) | Herbicidal rating SAGPY ([3]; 0.1250 kg/ha)
1.0: Preemergence herbicidal rating TRZAWR ([1]; rate 0.1250 kg/ha)
